Measured values taken from patent publication US11512042B2, “Enamine compounds for absorbance of electromagnetic energy” (Commonwealth Scientific and Industrial Research Organisation, priority 2015, dated 2022).
“And” between values parts separate entries of the source, which are not always exact repeats. Equal values may be shown once. “Also recorded” adds a separate entry of the source. Marks after values point to notes of the source that are not given here.

Legend:
Assay type in all cases: physicochemical
[1] = PMMA film in QUV Weatherometer; settings: type A bulbs, 70° C. 8 hours then dark humid 50° C. 4 h
Experimental: In order to gauge longer term photostability, the PMMA film samples were evaluated in a QUV Weatherometer using type A bulbs with solar irradiance at 70° C. for 8 hours followed by heating in the dark under a humid atmosphere at 50° C. for 4 h. The film was then sandwiched between 2 glass slides to prevent deformation and irradiated. The samples were evaluated by a visual comparison and measurement of transmittance spectra. […] This clearly indicates the suitability of compounds of the first aspect to incorporation into polymeric matrices and films. The relevant transmission spectra are shown in FIG. 11 (142), FIG. 12 (143), FIG. 13 (164), FIG. 14 (213) and FIG. 15 (215) wherein in all of these figures the lower plateau line represents the result following radiation and the upper line prior to irradiation.

[2] = Lens casting in NK ester lens formulation; settings: AIBN initiator, cured 70° C. 18 hours, 0.1 wt %
Experimental: (§1) Two lens formulations were used. The first (CR-39) was composed of Di(ethylene glycol) bis(allylcarbonate) with 3% wt benzoyl peroxide as initiator. The second lens formulation (NK) was made up of 4 parts NK Ester BPE 100N (Ethoxylated Bisphenol A dimethacrylate) to 1 part NK Ester 9G (PEG 400 dimethacrylate) with 0.4 wt % AIBN as initiator.
(§2) Once the glue had dried the lens matrix (3 g of the lens matrix was treated with 3 mg of absorber, 0.1 wt % and stirred until dissolution complete. 3 g of the matrix was sufficient to prepare 3-4 lenses) was added via pipette to the interior until a convex meniscus was formed at the top of the O-ring. The mixture was then left to settle for 15 minutes during which time any bubbles formed were dispersed. A second microscope slide was then slowly rolled on top of the first to form a seal and expel any air. Taking care to maintain pressure the lens mould was then clamped at the sides with two “Bulldog” clips and cured in an oven at 70° C. for 18 hours. Once the curing process was complete the two microscope slides were separated and the lens removed from the O-ring before washing with acetone and drying/polishing with a soft tissue. The lenses thus formed were approximately 2 mm thick and 15 mm in diameter.

[3] = Photostability protocol: thin film irradiated with xenon arc lamp; settings: 1 hour xenon arc lamp; for Photostability: ratio of absorbance at λmax irradiated vs unirradiated, ^a = average of multiple measurements
Summary of the method: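 A 3% solution in EtOH/triglyceride/alkyl benzoate is dried on glass slides into a liquid film of 1.5 mg compound. Films are irradiated 1 h with a Pyrex-filtered 150 W xenon arc lamp (about 100 MED, below 30° C). Washings are read by UV; stability is absorbance at λmax relative to unirradiated film.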

[4] = Lens casting in CR-39 lens formulation; settings: benzoyl peroxide initiator, cured 70° C. 18 hours, 0.1 wt %
Experimental: as §1, §2
Of particular interest are compounds 163 and 164 which show an increase in λmax on constraining only the nitrogen substituent in a ring i.e. not the double bond. […] Additionally the dimethyl analogue 213 (structure in table 14) was also evaluated.

[5] = Solubility in the photostability test solution; settings: printed in the photostability (or steepness) column
Description: The properties of these compounds are shown in table 9 with comparator compounds. […] In both cases low solubility meant that photostability could not be measured. This would not preclude use of the compounds in many applications where solubility is not at issue.
In one embodiment, the compounds may provide for improved solubility or stability in standard compositions, including sunscreen compositions. Such solubility may be measured by generating, for example, a 3% solution of the relevant compound in 2:1:1 EtOH:capric/caprylic triglyceride:C12-C15 alkyl benzoate.
1 mL of a 3% solution of the test compound (30 mg of test compound in 1 mL solvent) was prepared in a solvent mix made up of 50% EtOH and 25% capric/caprylic triglyceride and 25% C12-C15 alkyl benzoate. 50 μL of this solution (containing 1.5 mg of test compound) was added carefully to the centre of a glass microscope slide and the volatile components left to evaporate in the dark for at least 3 hours to give a liquid film. The prepared films were then exposed for 1 hour to an Eimac 150 W xenon arc lamp filtered through Pyrex (15 Amp supply current, samples 19 cm from the lamp) previously allowed to warm up for 15 minutes prior to sample exposure. […] One hour's exposure represented a calculated radiation dose (using meter) of approximately 100 MED.

[6] = % transmission spectrum of 0.1% solution (breakthrough, steepness); settings: for Steepness: distance in nm over which transmittance increases from 1 to 80%; for Breakthrough (1% T at 0.1%): value in nm where transmittance increases beyond 1%, 0.1% solution
Summary of the method: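 Transmission was recorded for 0.1% methanol solutions in a 2 mm cuvette. Breakthrough is the wavelength (nm) at which transmittance exceeds 1%; steepness is the nm span over which transmittance rises from 1 to 80%. Some values are averages of multiple measurements.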

[7] = Stability to epoxy resin curing; settings: 2 part epoxy resin, transmittance vs solution
Experimental: In order to test the stability of a number of compounds to a typical epoxy resin curing system, epoxy adhesive packs were obtained (Parfix 5 minute everyday epoxy adhesive, 24 ml). This is a standard 2 part epoxy resin with the first part composed of a viscous Bisphenol-A/epichlorohydrin polymeric reaction product. The second part is a viscous 30% solution of an aminophenol hardener, T (shown below). Epoxy resins cured by 1° and 2° amines are also available.
To test the stability of the compounds to the curing conditions, a 0.1% wt (1 mg absorber per gram of resin) was prepared and added to a mould comprising a 2 mm thick viton o-ring super glued to a microscope slide. […] Due to difficulties in solubilising the compounds in the mixed resin/hardener in the limited working time as the resin cured; the two barrels of the application syringe were separated with a scalpel allowing the separate application of both parts of the resin system.
This was then mixed thoroughly and immediately added to the moulds as described above. […]

[8] = UV absorbance spectrum in solution (λmax, λcrit, extinction coefficients); settings: for λcrit: critical wavelength; for E (1%, 1 cm): mass extinction coefficient
Summary of the method: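 Spectra taken on 0.001% solutions in methanol, 10 mm path. Breakthrough is the wavelength where transmittance rises above 1%; steepness is the nm span over which transmittance goes from 1 to 80%.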

[9] = Irradiation of PMMA thin film (xenon lamp, sunlight); settings: irradiated 1 h, 2 h and 3 weeks direct sunlight
Experimental: In order to determine the stability of the compounds in a polymer matrix, thin films were cast in Poly(methylmethacrylate) (PMMA). This was achieved by adding the compound in question to a solution of PMMA (Mw 240,000) in DCM and spreading the resulting solution onto a glass slide before evaporation over night to give the desired film. The film was then sandwiched between 2 glass slides to prevent deformation and irradiated. […] In this way films of compound 164 were prepared. The films were irradiated for 1 h, 2 h and also left outside exposed to direct sunlight and atmospheric conditions for 3 weeks (Melbourne summer time).

[10] = Irradiation in polyurethane varnish coating; settings: 1% in polyurethane varnish, xenon arc lamp two hours
Experimental: As a model for the use of the compounds of the first aspect in coatings, a 1% solution by mass (10 mg in 1 g) of the compounds in British Paints oil based polyurethane varnish was applied to the surface of a microscope slide and left to dry overnight in the dark. The transmittance of the slide was then measured before irradiating the sample with a xenon arc lamp (as for the solution phase thin film samples) for two hours and the transmittance re-measured. Slight variations in the thickness of the films obtained would be sufficient to result in variations in transmittance so it was judged to be of equal importance to observe the slope of the samples before and after irradiation as any change here was likely an indicator of decomposition. The varnish itself blocks the transmission of light up to approximately 350-370 nm.

[11] = molar extinction coefficient, in M-1 cm-1 (unit assumed)

Structure (SMILES)	Longer term photostability in PMMA film [1]	Stability to lens casting conditions [2]	Photostability (% remains) [3]	Photostability [3]	Stability to lens casting conditions [4]	Solubility for photostability measurement [5]	Steepness [6] [nm]	Breakthrough (1% T at 0.1%) [6] [nm]	Stability to epoxy resin curing [7]	λmax [8] [nm]	ε ([8]; UV, at λmax) [M⁻¹ cm⁻¹]	λcrit [8] [nm]	E (1%, 1 cm) [8]	ε [8, 11]	Stability in PMMA thin film [9]	Stability to irradiation in varnish [10]
CCN(/C=C(\C(=O)C(F)(F)F)c1ccccc1)c1ccccc1 [Compound 142, 4-(ethyl(phenyl)amino)-1,1,1-trifluoro-3-phenylbut-3-en-2-one]	little sign of decomposition after irradiation	very little if any decomposition	91% and 99%	99%	stable enough for such incorporation; also recorded: very little if any decomposition											
O=C(/C(=C\N(c1ccccc1)c1ccccc1)c1ccccc1)C(F)(F)F [Compound 143, 4-(diphenylamino)-1,1,1-trifluoro-3-phenylbut-3-en-2-one]	little sign of decomposition after irradiation	very little if any decomposition			stable enough for such incorporation; also recorded: very little if any decomposition	Not soluble	32	402	little or no decomposition occurred	351	27893	381	760	27893		
CCCCC(CC)COC(=O)c1ccc2c(c1)CCN2/C=C(\C(=O)C(F)(F)F)c1ccccc1 (stereo not shown) [Compound 215]	little sign of decomposition after irradiation		85%							374		391	1067	50515		
O=C(/C(=C\N1CCc2ccccc21)c1ccccc1)C(F)(F)F [Compound 164]	little sign of decomposition after irradiation		99%	99%	stable enough for such incorporation; also recorded: good stability to the lens curing conditions		20	418	remain intact after curing	367		389	1127	35741	without compound deterioration	largely unscathed by the irradiation
CC1(C)CN(/C=C(\C(=O)C(F)(F)F)c2ccccc2)c2ccccc21 [Compound 213]	little sign of decomposition after irradiation				stable enough for such incorporation; also recorded: good stability to the lens curing conditions		22	413		366		389	860	29690		
COC(=O)c1ccc2c(c1)CCN2/C=C(/C(=O)c1ccccc1O[Si](C)(C)C(C)(C)C)c1ccccc1 [Compound 302]				45%			26	01		369		384	1089	55852		
Cc1cc(C)c(C(=O)/C(=C\N2CCc3cc(C(=O)OCCCOC(=O)c4ccc5c(c4)CCN5/C=C(/C(=O)c4c(C)cc(C)cc4C)c4ccccc4)ccc32)c2ccccc2)c(C)c1 [Compound 307]				98, 98%			22	402		370		384	1251	107885		
COC(=O)c1ccc2c(c1)CCN2C=C(C(=O)c1c(C)cc(C)cc1C)c1ccccc1 [Compound 282]				89% and 91%			23	402		368		382	1427	60650		
Cc1cc(C)c(C(=O)/C(=C/N(c2ccccc2)c2ccccc2)c2ccccc2)c(C)c1 [Compound 254]				88^a %			32	383		341		369	661	27592		
CCCCC(CC)COC(=O)c1ccc2c(c1)CCN2/C=C(/C(=O)c1ccncc1)c1ccccc1 (stereo not shown) [Compound 308]				79%			41	431		374		391	796	38378		
N#CCC(=O)/C(=C\N1CCc2ccccc21)c1ccccc1 [Compound 249]						Not soluble		405		361		361	1089	31385		
